From patent US20250382305A1 (PTC THERAPEUTICS, INC., priority 2022, published 2025)
pIC50: −log10 of the molar value.

Experiments:
[1] = tested on: ATXN3 pre-mRNA; experiment: RT-qPCR Assay to Quantify Exon 4 Skipping in ATXN3 pre-mRNA in Cells; type: cell-based; settings: percent exon 4 skipping in ATXN3 pre-mRNA, RT-qPCR of cell lysates; average IC50
How it was run: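 IC50 derives from a dose-response fit of percent exon 4 skipping, quantified by RT-qPCR on crude lysates. Compounds tested as 7-point 3.16-fold dilutions in duplicate; cells (10,000/well) were exposed for 24 h at 37 °C before lysis.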

[2] = tested on: Total ATXN3 (tATXN3) protein; experiment: Endogenous Total ATXN3 (tATXN3) Protein Assay (MSD immunoassay of cell lysates); type: cell-based; settings: average IC50, total ATXN3 protein in cell lysate after 48 h with compound (Table 1)
How it was run: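 By electrochemiluminescent MSD sandwich immunoassay (mouse monoclonal capture, rabbit monoclonal and SULFO-TAG anti-rabbit detection), endogenous ATXN3 was quantified in lysates of cells treated 48 h at 37° C at 10,000 cells/well. Treatment used a 7-point 3.16-fold duplicate dilution series, with average IC50 grouped into star categories.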

Structure (SMILES) | pIC50 [1] | pIC50 [2]
N[C@@H]1CCC[C@H]1c1sc2c(NCc3ccco3)cc(Cl)nc2c1Br [Compound 155, 2-((1R,2R)-2-aminocyclopentyl)-3-bromo-5-chloro-N-(furan-2-ylmethyl)thieno[3,2-b]pyridin-7-amine] | 6.00 to 6.52 | < 6.00
N[C@@H]1CCCO[C@H]1c1sc2c(NCc3ccccc3)cc(Cl)nc2c1Cl [Compound 156, 2-((2R,3R)-3-aminotetrahydro-2H-pyran-2-yl)-N-benzyl-3,5-dichlorothieno[3,2-b]pyridin-7-amine] | < 6.00 | < 6.00
N[C@@H]1CCCCC[C@H]1c1sc2c(NCc3cccs3)cc(Cl)nc2c1I [Compound 157, 2-((1R,2R)-2-aminocycloheptyl)-5-chloro-3-iodo-N-(thiophen-2-ylmethyl)thieno[3,2-b]pyridin-7-amine] | < 6.00 | < 6.00
CCc1c([C@@H]2CCCCCC[C@H]2N)sc2c(NCc3cccs3)cc(Cl)nc12 [Compound 158, 2-((1R,2R)-2-aminocyclooctyl)-5-chloro-3-ethyl-N-(thiophen-2-ylmethyl)thieno[3,2-b]pyridin-7-amine] | < 6.00 | < 6.00
N[C@H]1CCC[C@@H]1c1sc2c(NCc3ccccc3)cc(Cl)nc2c1Cl [Compound 159, 2-((1S,2S)-2-aminocyclopentyl)-N-benzyl-3,5-dichlorothieno[3,2-b]pyridin-7-amine] | < 6.00 | < 6.00
Cc1c([C@@H]2CCC[C@H]2N)sc2c(NCc3ccccc3)cc(Cl)nc12 [Compound 160, 2-((1R,2R)-2-aminocyclopentyl)-N-benzyl-5-chloro-3-methylthieno[3,2-b]pyridin-7-amine] | < 6.00 | < 6.00
N[C@@H]1CCC[C@H]1c1sc2c(NCc3ccccc3)cc(Cl)nc2c1Br [Compound 161, 2-((1R,2R)-2-aminocyclopentyl)-N-benzyl-3-bromo-5-chlorothieno[3,2-b]pyridin-7-amine] | < 6.00 | < 6.00
N[C@H]1CCC[C@@H]1c1sc2c(NCc3cccs3)cc(Cl)nc2c1I [Compound 162, 2-((1S,2S)-2-aminocyclopentyl)-5-chloro-3-iodo-N-(thiophen-2-ylmethyl)thieno[3,2-b]pyridin-7-amine] | ≥ 7.52 | ≥ 7.52
N[C@H]1CCCCC[C@@H]1c1sc2c(NCc3cccs3)cc(Cl)nc2c1I [Compound 163, 2-((1S,2S)-2-aminocycloheptyl)-5-chloro-3-iodo-N-(thiophen-2-ylmethyl)thieno[3,2-b]pyridin-7-amine] | ≥ 7.52 | 6.52 to 7.52
CCc1c([C@H]2CCCCCC[C@@H]2N)sc2c(NCc3cccs3)cc(Cl)nc12 [Compound 164, 2-((1S,2S)-2-aminocyclooctyl)-5-chloro-3-ethyl-N-(thiophen-2-ylmethyl)thieno[3,2-b]pyridin-7-amine] | 6.00 to 6.52 | < 6.00
N[C@H]1CCC[C@@H]1c1sc2c(NCc3ccco3)cc(Cl)nc2c1Br [Compound 165, 2-((1S,2S)-2-aminocyclopentyl)-3-bromo-5-chloro-N-(furan-2-ylmethyl)thieno[3,2-b]pyridin-7-amine] | ≥ 7.52 | ≥ 7.52
N[C@H]1CCC[C@@H]1c1sc2c(NCc3ccccc3)cc(Cl)nc2c1Br [Compound 166, 2-((1S,2S)-2-aminocyclopentyl)-N-benzyl-3-bromo-5-chlorothieno[3,2-b]pyridin-7-amine] | 6.52 to 7.52 | 6.52 to 7.52
N[C@@H]1CCC[C@H]1c1sc2c(NCc3ccccc3)cc(Cl)nc2c1Cl [Compound 167, 2-((1R,2R)-2-aminocyclopentyl)-N-benzyl-3,5-dichlorothieno[3,2-b]pyridin-7-amine] | 6.52 to 7.52 | 6.00 to 6.52
N[C@H]1CC=CC[C@@H]1c1sc2c(NCc3ccco3)nc(Cl)nc2c1Br [Compound 168, 6-((1S,6S)-6-aminocyclohex-3-en-1-yl)-7-bromo-2-chloro-N-(furan-2-ylmethyl)thieno[3,2-d]pyrimidin-4-amine] | ≥ 7.52 | ≥ 7.52
N[C@H]1CC=CC[C@@H]1c1sc2c(NCc3ccco3)cc(Cl)nc2c1Cl [Compound 169, 2-((1S,6S)-6-aminocyclohex-3-en-1-yl)-3,5-dichloro-N-(furan-2-ylmethyl)thieno[3,2-b]pyridin-7-amine] | ≥ 7.52 | ≥ 7.52
N[C@H]1CC=CC[C@@H]1c1sc2c(NCc3ccco3)nc(Cl)nc2c1Cl [Compound 170, 6-((1S,6S)-6-aminocyclohex-3-en-1-yl)-2,7-dichloro-N-(furan-2-ylmethyl)thieno[3,2-d]pyrimidin-4-amine] | > 7.52 | ≥ 7.52

Structure (SMILES) | pIC50 [1] | pIC50 [2]
N[C@H]1CC=CC[C@@H]1c1sc2c(NCc3ccco3)nc(Cl)nc2c1I [Compound 172, 6-((1S,6S)-6-aminocyclohex-3-en-1-yl)-2-chloro-N-(furan-2-ylmethyl)-7-iodothieno[3,2-d]pyrimidin-4-amine] | ≥ 7.52 | ≥ 7.52
N[C@H]1CCCC[C@@H]1c1sc2c(NCc3ccco3)cc(Cl)nc2c1Cl [Compound 173, 2-((1S,2S)-2-aminocyclohexyl)-3,5-dichloro-N-(furan-2-ylmethyl)thieno[3,2-b]pyridin-7-amine] | ≥ 7.52 | ≥ 7.52
N[C@H]1CCOC[C@@H]1c1sc2c(NCc3ccco3)cc(Cl)nc2c1Cl [Compound 174, 2-((3R,4S)-4-aminotetrahydro-2H-pyran-3-yl)-3,5-dichloro-N-(furan-2-ylmethyl)thieno[3,2-b]pyridin-7-amine] | ≥ 7.52 | ≥ 7.52
N[C@H]1CC=CC[C@@H]1c1sc2c(NCc3cccs3)cc(Cl)nc2c1I [Compound 176, 2-((1S,6S)-6-aminocyclohex-3-en-1-yl)-5-chloro-3-iodo-N-(thiophen-2-ylmethyl)thieno[3,2-b]pyridin-7-amine] | ≥ 7.52 | ≥ 7.52
N[C@H]1CC=CC[C@@H]1c1sc2c(NCc3nccs3)cc(Cl)nc2c1Cl [Compound 178, 2-((1S,6S)-6-aminocyclohex-3-en-1-yl)-3,5-dichloro-N-(thiazol-2-ylmethyl)thieno[3,2-b]pyridin-7-amine] | ≥ 7.52 | ≥ 7.52
N[C@H]1CCOC[C@@H]1c1sc2c(NCc3cccs3)cc(Cl)nc2c1Cl [Compound 179, 2-((3R,4S)-4-aminotetrahydro-2H-pyran-3-yl)-3,5-dichloro-N-(thiophen-2-ylmethyl)thieno[3,2-b]pyridin-7-amine] | ≥ 7.52 | ≥ 7.52
N[C@H]1CC=CC[C@@H]1c1sc2c(NCc3cccs3)nc(Cl)nc2c1I [Compound 182, 6-((1S,6S)-6-aminocyclohex-3-en-1-yl)-2-chloro-7-iodo-N-(thiophen-2-ylmethyl)thieno[3,2-d]pyrimidin-4-amine] | ≥ 7.52 | ≥ 7.52
Cc1c([C@H]2CC=CC[C@@H]2N)sc2c(NCc3ccco3)cc(Cl)nc12 [Compound 184, 2-((1S,6S)-6-aminocyclohex-3-en-1-yl)-5-chloro-N-(furan-2-ylmethyl)-3-methylthieno[3,2-b]pyridin-7-amine] | ≥ 7.52 | ≥ 7.52
N[C@H]1CC=CC[C@@H]1c1sc2c(NCc3cccs3)cc(Cl)nc2c1Br [Compound 186, 2-((1S,6S)-6-aminocyclohex-3-en-1-yl)-3-bromo-5-chloro-N-(thiophen-2-ylmethyl)thieno[3,2-b]pyridin-7-amine] | ≥ 7.52 | ≥ 7.52
[2H]C1=C([2H])C([2H])([2H])[C@H](c2sc3c(NCc4ccco4)nc(Cl)nc3c2C)[C@@H](N)C1([2H])[2H] [Compound 187, 6-((1S,6S)-6-aminocyclohex-3-en-1-yl-2,2,3,4,5,5-d6)-2-chloro-N-(furan-2-ylmethyl)-7-methylthieno[3,2-d]pyrimidin-4-amine] | ≥ 7.52 | ≥ 7.52
N[C@H]1CC=CC[C@@H]1c1sc2c(NCc3ccco3)cc(Cl)nc2c1I [Compound 188, 2-((1S,6S)-6-aminocyclohex-3-en-1-yl)-5-chloro-N-(furan-2-ylmethyl)-3-iodothieno[3,2-b]pyridin-7-amine] | ≥ 7.52 | ≥ 7.52
N[C@H]1CC=CC[C@@H]1c1sc2c(NCc3ccccc3)cc(Cl)nc2c1I [Compound 190, 2-((1S,6S)-6-aminocyclohex-3-en-1-yl)-N-benzyl-5-chloro-3-iodothieno[3,2-b]pyridin-7-amine] | ≥ 7.52 | ≥ 7.52
N[C@H]1CC=CC[C@@H]1c1sc2c(NCc3cccs3)nc(Cl)nc2c1Br [Compound 191, 6-((1S,6S)-6-aminocyclohex-3-en-1-yl)-7-bromo-2-chloro-N-(thiophen-2-ylmethyl)thieno[3,2-d]pyrimidin-4-amine] | ≥ 7.52 | ≥ 7.52
Cc1c([C@H]2CC=CC[C@@H]2N)sc2c(NCc3ccco3)nc(Cl)nc12 [Compound 193, 6-((1S,6S)-6-aminocyclohex-3-en-1-yl)-2-chloro-N-(furan-2-ylmethyl)-7-methylthieno[3,2-d]pyrimidin-4-amine] | ≥ 7.52 | ≥ 7.52
N[C@H]1CC=CC[C@@H]1c1sc2c(NCc3ccccc3)cc(Cl)nc2c1Br [Compound 194, 2-((1S,6S)-6-aminocyclohex-3-en-1-yl)-N-benzyl-3-bromo-5-chlorothieno[3,2-b]pyridin-7-amine] | ≥ 7.52 | ≥ 7.52
N[C@H]1CC=CC[C@@H]1c1sc2c(NCc3cccs3)cc(Cl)nc2c1Cl [Compound 196, 2-((1S,6S)-6-aminocyclohex-3-en-1-yl)-3,5-dichloro-N-(thiophen-2-ylmethyl)thieno[3,2-b]pyridin-7-amine] | ≥ 7.52 | ≥ 7.52
